The assay has as its target High affinity nerve growth factor receptor (Homo sapiens, UniProt P04629).

Sequence of High affinity nerve growth factor receptor (P04629 whole entry): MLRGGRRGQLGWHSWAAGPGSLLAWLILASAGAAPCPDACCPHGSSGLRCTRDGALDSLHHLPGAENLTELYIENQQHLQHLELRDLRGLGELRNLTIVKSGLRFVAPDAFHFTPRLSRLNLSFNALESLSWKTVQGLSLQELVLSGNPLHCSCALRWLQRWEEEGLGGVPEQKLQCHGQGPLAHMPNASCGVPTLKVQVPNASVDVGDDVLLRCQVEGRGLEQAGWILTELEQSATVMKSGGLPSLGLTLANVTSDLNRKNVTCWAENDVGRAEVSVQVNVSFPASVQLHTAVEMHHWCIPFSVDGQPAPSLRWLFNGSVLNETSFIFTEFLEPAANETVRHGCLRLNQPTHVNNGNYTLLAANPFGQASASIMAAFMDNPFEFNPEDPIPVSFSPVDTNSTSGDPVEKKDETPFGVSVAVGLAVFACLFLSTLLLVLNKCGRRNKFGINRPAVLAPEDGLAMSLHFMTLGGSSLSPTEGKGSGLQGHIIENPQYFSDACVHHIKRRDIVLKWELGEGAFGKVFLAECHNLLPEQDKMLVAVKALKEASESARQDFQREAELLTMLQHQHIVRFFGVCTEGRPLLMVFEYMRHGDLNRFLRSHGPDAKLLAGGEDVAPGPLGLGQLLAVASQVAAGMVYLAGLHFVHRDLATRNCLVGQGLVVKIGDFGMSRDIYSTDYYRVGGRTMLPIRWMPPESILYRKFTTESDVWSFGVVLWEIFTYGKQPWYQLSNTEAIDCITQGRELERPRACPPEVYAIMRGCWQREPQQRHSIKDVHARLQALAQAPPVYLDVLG

For `Cc1nc2ccc(NC(=O)c3coc4c3C(=O)NCC4)cc2s1` [US9777020, Example 15], the half-inhibitory concentration (IC50) amounted to 69.3 nM.

For `CCOc1nc(N2CCOCC2)ccc1NC(=O)c1coc2c1C(=O)NCC2` [US9777020, Example 106], the IC50 worked out at 28.6 nM.

In general, IC50 refers to the midpoint of a concentration-inhibition curve.

For the origin of these results see BindingDB's records for patent US9777020 (AbbVie Inc, 2017).
